Laboratory results taken from patent US6143774A, “Imidazole n-benzyldioxol derivatives, method for preparing same, resulting intermediates, pharmaceutical compositions and use of said derivatives as endothelin antagonists” (Hoechst Marion Roussel, priority 1995, dated 2000).

Experiments:
[1] = molecular target: T1, Endothelin A receptor (Rattus norvegicus, UniProt P26684); experiment: Study of the affinity for the endothelin A receptor (125I endothelin displacement, rat heart ventricle membranes); format: binding; conditions: rat heart (ventricles) membranes, 25° C., 60 minutes
T1 construct: A membrane preparation is prepared from the heart (ventricles) of a rat; from tissue; host or cells: rat heart ventricles (membrane preparation)
T1 sequence (P26684 21-426): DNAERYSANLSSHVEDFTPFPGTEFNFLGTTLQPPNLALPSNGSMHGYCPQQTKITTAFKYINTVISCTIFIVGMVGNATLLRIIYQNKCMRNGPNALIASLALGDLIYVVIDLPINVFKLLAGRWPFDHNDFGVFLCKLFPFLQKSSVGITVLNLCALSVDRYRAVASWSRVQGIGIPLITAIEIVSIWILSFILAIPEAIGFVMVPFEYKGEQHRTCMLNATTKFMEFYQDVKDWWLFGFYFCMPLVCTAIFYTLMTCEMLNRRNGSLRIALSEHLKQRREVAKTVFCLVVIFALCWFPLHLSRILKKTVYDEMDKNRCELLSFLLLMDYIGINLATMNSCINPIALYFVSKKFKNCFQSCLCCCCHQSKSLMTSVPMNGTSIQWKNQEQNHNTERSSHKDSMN
Description: 1) Study of the Affinity for the Endothelin a Receptor
A membrane preparation is prepared from the heart (ventricles) of a rat. The tissue is ground up in a POLYTRON in a 50 mM Tris buffer pH=7.4.
(§1) After 30 minutes at 25° C. (W.B.) the homogenate is centrifuged at 30,000 g for 15 minutes (2 centrifugations with intermediate take-up in the Tris buffer pH 7.4).
(§2) The pellets are suspended in an incubation buffer (25 mM Tris, 5 microg/ml pepstatin A, 3 microg/ml aprotinin, 0.1 mM PMSF, 3 mM EDTA, 1 mM EGTA pH 7.4).
2 ml aliquoted fractions are distributed in hemolysis tubes and ^125 I endothelin (approx. 5,000 dpm/tube) and the product to be studied are added. (The product is first tested at […] three times). When the tested product displaces more than 50% of the radioactivity specifically bound to the receptor, it is tested again according to a range of 7 concentrations in order to determine the concentration which inhibits by 50% the radioactivity specifically bound to the receptor. In this way the 50% inhibitory concentration is determined.
(§3) The non-specific bond is determined by the addition of endothelin at 10^-6 M (three times). After incubation at 25° C. for 60 minutes, replacing in a water bath at 0° C. for 5 minutes, filtration under reduced pressure and rinsing with Tris buffer pH 7.4, the radioactivity is counted in the presence of scintillating Triton.
(§4) The result is expressed directly as the 50% inhibitory concentration (IC50), that is to say as the concentration of product studied, expressed in nM, necessary to displace 50% of the specific radioactivity fixed to the receptor studied.

[2] = molecular target: T2, Endothelin B receptor (Rattus norvegicus, UniProt P21451); experiment: Study of the affinity for the endothelin B receptor (125I endothelin displacement, rat cortex plus cerebellum membranes); format: binding; conditions: rat rear cortex plus cerebellum membranes, 25° C., 60 minutes
T2 construct: A membrane preparation is prepared from the rear cortex plus the cerebellum of a rat; from tissue; host or cells: rat rear cortex plus cerebellum (membrane preparation)
T2 sequence (P21451 27-442): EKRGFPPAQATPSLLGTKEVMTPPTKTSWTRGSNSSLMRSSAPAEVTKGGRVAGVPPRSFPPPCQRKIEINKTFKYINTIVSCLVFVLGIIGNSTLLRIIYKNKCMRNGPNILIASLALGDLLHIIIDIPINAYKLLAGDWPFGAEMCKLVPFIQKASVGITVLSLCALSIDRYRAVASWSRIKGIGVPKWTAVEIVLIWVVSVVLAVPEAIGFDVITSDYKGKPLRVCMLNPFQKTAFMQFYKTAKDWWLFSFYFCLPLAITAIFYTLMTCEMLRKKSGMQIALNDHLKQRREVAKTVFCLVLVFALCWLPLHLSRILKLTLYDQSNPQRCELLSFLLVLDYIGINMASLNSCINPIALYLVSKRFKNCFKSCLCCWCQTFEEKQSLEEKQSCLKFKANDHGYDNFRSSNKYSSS
Description: 2) Study of the Affinity for the Endothelin B Receptor
A membrane preparation is prepared from the rear cortex plus the cerebellum of a rat. The tissue is ground up in a POLYTRON in a 50 mM Tris buffer pH=7.4.
as §1, §2
2 ml aliquoted fractions are distributed in hemolysis tubes and ^125 I endothelin (approx. 5,000 dpm/tube) and the product to be studied are added. (The product is first tested at 3×10^-5 M three times). When the tested product displaces more than 50% of the radioactivity specifically bound to the receptor, it is tested again according to a range of 7 concentrations in order to determine the concentration which inhibits by 50% the radioactivity specifically bound to the receptor. In this way the 50% inhibitory concentration is determined.
as §3, §4

[3] = tested on: endothelin (ET1); experiment: Test for antagonistic activity of endothelin in the demedullated rat; format: in vivo, male Sprague Dawley rats
Description: 3) Test for Antagonistic Activity of Endothelin in the Demedullated Rat
Male Sprague Dawley rats (250 to 350 g) are anaesthetized (sodium pentobarbital 60 mg/kg injected by intraperitoneal route). The animal is placed under assisted respiration and a bilateral section of the vagus nerves is carried out. The rat is then demedullated.
The average arterial pressure is recorded with a heparin catheter (PE50) introduced into the carotid of the animal, and connected via a pressure sensor and an amplifier to a recorder (Gould, Pressure Processor). A catheter is introduced into the pudendal vein in order to allow injection of the molecules to be studied. After a stabilization period (about 15 minutes), the product or the solvent is injected 10 minutes before a range of increasing doses of endothelin which are injected every 2 minutes (0.1-0.3-1-3-10 μg/kg).
The anatagonistic activity of the products is estimated by the percentage inhibition in the increase in pressure induced by the endothelin at doses of 3 and 10 μg/kg.

[4] = tested on: endothelin (ET), isolated thoracic aorta of a rat; experiment: Antagonistic activity of endothelin on the isolated aorta of a rat; parameters: species or system Wistar male rats
Description: The thoracic aorta is removed from Wistar male rats (approximately 350 g) (IFFA CREDO France) anaesthetized with pentobarbital (60 mg/kg IP) then exsanguinated. The aorta is rapidly put into a physiological solution at ambient temperature. A 1 to 2 mm ring without endothelium is put in an isolated organ bath containing 5 ml of the following physiological solution (composition in mM NaCl: 118.4; KCl: 4.7; MgSO4, 7H2 O: 1.2; CaCl2, 2H2 O: 2.5; KH2 PO4 : 1.2; NaHCO3 : 25; glucose: 10.1) the medium is maintained at 37° C. and oxygenated with a mixture of oxygen (95%) carbon dioxide (5%). The initial pressure imposed is 2 g, the rings are left at rest for 60 to 90 minutes. The reference contraction is caused by the addition of 2 successive concentrations of 3 μM of noradrenalin, left in contact for 15 minutes, followed by 3 washings, the second response serves as the reference contraction. After return to the base line, incubation is carried out for 15 minutes with a concentration of the product to be tested or the solvent then cumulative concentrations of endothelin are added every 5 minutes (concentrations of […]). The inhibition induced by the product is calculated as a % of the reduction relative to the reactivity of the control curves over 2 points: concentration of 10 and 30 nM of endothelin.

[5] = tested on: endothelin (ET1); experiment: Protection against sudden death induced by IV injection of endothelin (ET1) in a female mouse; format: in vivo
Description: 5) Protection Against Sudden Death Induced by IV Injection of Endothelin (ET1) in a Female Mouse
A lethal dose of ET1 (10 nmole/kg IV) is injected into female mice. The solvent or the molecules to be studied are injected 10 minutes before (i.v. route) or 30 minutes before (oral route) the endothelin.
The protection is calculated in the form of ED50 (50% effective dose, or the dose capable of reducing the mortality by 50% relative to the control group).

[6] = 10 min, IV, 10 minutes before ET1 10 nmole/kg IV
[7] = 0.5 h, PO, 30 minutes before ET1 10 nmole/kg IV

SMILES: CCCc1nc(SC2CCC(CC(=O)O)CC2)c(C(=O)O)n1Cc1cc2c(cc1Cl)OCO2 (centres unmarked) [Example 2, 4-((4-(carboxymethyl)cyclohexyl)thio)-1-((6-chloro-1,3-benzodioxol-5-yl)methyl)-2-propyl-1H-imidazole-5-carboxylic acid]
- IC50 [1]: 1.1 nM
- IC50 [2]: 194 nM
- % inhibition of vasoconstriction ([3]; dose 0.3 mg/kg, ET1 10 μg/kg): 39%
- % inhibition of vasoconstriction ([3]; dose 0.3 mg/kg, ET1 (3 μg/kg)): 56%
- % inhibition of vasoconstriction ([3]; dose 1.0 mg/kg, ET1 10 μg/kg): 65%
- % inhibition of vasoconstriction ([3]; dose 1.0 mg/kg, ET1 (3 μg/kg)): 60%
- % inhibition of vasoconstriction ([3]; dose 3.0 mg/kg, ET1 10 μg/kg): 77%
- % inhibition of vasoconstriction ([3]; dose 3.0 mg/kg, ET1 (3 μg/kg)): 63%
- % inhibition of contraction ([4]; antagonist 0.1 μM, ET 30 nM): 61%
- % inhibition of contraction ([4]; antagonist 0.1 μM, ET 10 Nm): 71%
- % inhibition of contraction ([4]; antagonist 1.0 μM, ET 30 nM): 100%
- % inhibition of contraction ([4]; antagonist 1.0 μM, ET 10 Nm): 94%
- ED50 [5, 6]: 0.8 mg/kg
- ED50 [5, 7]: 1.1 mg/kg

SMILES: O=C(O)CCCCCSc1nc(C2OCCO2)n(Cc2cc3c(cc2Cl)OCO3)c1C(=O)O [Example 3]
- % inhibition of vasoconstriction ([3]; dose 1.0 mg/kg, ET1 10 μg/kg): 53%
- % inhibition of vasoconstriction ([3]; dose 1.0 mg/kg, ET1 (3 μg/kg)): 52%
- % inhibition of vasoconstriction ([3]; dose 3.0 mg/kg, ET1 10 μg/kg): 71%
- % inhibition of vasoconstriction ([3]; dose 3.0 mg/kg, ET1 (3 μg/kg)): 64%
- ED50 [5, 6]: 5 mg/kg
- ED50 [5, 7]: 24.1 mg/kg

SMILES: COCc1nc(SCCCCCC(=O)O)c(C(=O)O)n1Cc1cc2c(cc1Cl)OCO2 [Example 4]
- % inhibition of vasoconstriction ([3]; dose 10.0 mg/kg, ET1 10 μg/kg): 38%
- % inhibition of vasoconstriction ([3]; dose 10.0 mg/kg, ET1 (3 μg/kg)): 49%

SMILES: CCCc1nc(SCCCCCC(=O)O)c(C(=O)O)n1Cc1cc2c(cc1Cl)OCO2 [Example 6]
- IC50 [1]: 1.2 nM
- IC50 [2]: 293 nM
- % inhibition of vasoconstriction ([3]; dose 1.0 mg/kg, ET1 10 μg/kg): 33%
- % inhibition of vasoconstriction ([3]; dose 1.0 mg/kg, ET1 (3 μg/kg)): 42%
- % inhibition of vasoconstriction ([3]; dose 3.0 mg/kg, ET1 10 μg/kg): 37%
- % inhibition of vasoconstriction ([3]; dose 3.0 mg/kg, ET1 (3 μg/kg)): 49%
- % inhibition of contraction ([4]; antagonist 0.1 μM, ET 30 nM): 99%
- % inhibition of contraction ([4]; antagonist 0.1 μM, ET 10 Nm): 96%
- % inhibition of contraction ([4]; antagonist 1.0 μM, ET 30 nM): 98%
- % inhibition of contraction ([4]; antagonist 1.0 μM, ET 10 Nm): 96%
- ED50 [5, 6]: 3.9 mg/kg

SMILES: CCCc1nc(SCCCCC(=O)O)c(C(=O)O)n1Cc1cc2c(cc1Cl)OCO2 [Example 8, 4-((4-carboxybutyl)thio)-1-((6-chloro-1,3-benzodioxol-5-yl)methyl)-2-(propyl)-1H-imidazole-5-carboxylic acid]
- IC50 [1]: 1.9 nM
- IC50 [2]: 600 nM
- % inhibition of vasoconstriction ([3]; dose 1.0 mg/kg, ET1 10 μg/kg): 22%
- % inhibition of vasoconstriction ([3]; dose 1.0 mg/kg, ET1 (3 μg/kg)): 40%
- % inhibition of vasoconstriction ([3]; dose 3.0 mg/kg, ET1 10 μg/kg): 47%
- % inhibition of vasoconstriction ([3]; dose 3.0 mg/kg, ET1 (3 μg/kg)): 57%
- % inhibition of contraction ([4]; antagonist 0.1 μM, ET 30 nM): 97%
- % inhibition of contraction ([4]; antagonist 0.1 μM, ET 10 Nm): 97%
- % inhibition of contraction ([4]; antagonist 1.0 μM, ET 30 nM): 96%
- % inhibition of contraction ([4]; antagonist 1.0 μM, ET 10 Nm): 95%
- ED50 [5, 6]: 3.5 mg/kg

SMILES: CCCc1nc(SC2CCC(=CC(=O)O)CC2)c(C(=O)O)n1Cc1cc2c(cc1Cl)OCO2 (centres unmarked) [Example 10, 4-((4-(carboxymethylene)cyclohexyl)thio)-1-((6-chloro 1,3-benzodioxol-5-yl)methyl)-2-propyl-1H-imidazole-5-carboxylic acid]
- IC50 [1]: 1.2 nM
- IC50 [2]: 210 nM
- % inhibition of vasoconstriction ([3]; dose 1.0 mg/kg, ET1 10 μg/kg): 39%
- % inhibition of vasoconstriction ([3]; dose 1.0 mg/kg, ET1 (3 μg/kg)): 59%
- % inhibition of vasoconstriction ([3]; dose 3.0 mg/kg, ET1 10 μg/kg): 61%
- % inhibition of vasoconstriction ([3]; dose 3.0 mg/kg, ET1 (3 μg/kg)): 58%
- ED50 [5, 6]: 3.3 mg/kg
- ED50 [5, 7]: 3.2 mg/kg

SMILES: CCCCc1nc(SCCCCCC(=O)O)c(C(=O)O)n1Cc1cc2c(cc1Cl)OCO2 [Example 12, 2-butyl 4-((5-carboxypentyl)thio) 1-((6-chloro 1,3-benzodioxol-5-yl)methyl)-1H-imidazole-5-carboxylic acid]
- IC50 [1]: 1.1 nM
- % inhibition of vasoconstriction ([3]; dose 10.0 mg/kg, ET1 10 μg/kg): 35%
- % inhibition of vasoconstriction ([3]; dose 10.0 mg/kg, ET1 (3 μg/kg)): 30%
- % inhibition of contraction ([4]; antagonist 0.1 μM, ET 30 nM): 65%
- % inhibition of contraction ([4]; antagonist 0.1 μM, ET 10 Nm): 88%
- % inhibition of contraction ([4]; antagonist 1.0 μM, ET 30 nM): 98%
- % inhibition of contraction ([4]; antagonist 1.0 μM, ET 10 Nm): 98%
